Measured values reported in article PMC8375385, “In vitro Effect of Harmine Alkaloid and Its N-Methyl Derivatives Against Toxoplasma gondii” (Frontiers in Microbiology, 2021).
Entries after “also recorded” stand apart in the source; their conditions may differ. Read-outs that look alike come from different tables or passages of the source.

What was measured:
[1] = test system: host cells; design: method as in not given; settings: Table 1 footnote c, footnote text not given; ref not given; cited from earlier work
[2] = test system: T. gondii RH strain; design: method as in not given; settings: footnote text not given, ref not given, cited from earlier work
[3] = test system: T. gondii γH2A.X; test: Western blot of γH2A.X in intracellular tachyzoites; type: cell-based, Toxoplasma gondii; settings: intracellular tachyzoites, 2 days; CPT 10 μM or 3 7.5 μM alone
Experimental: Monolayers of hTERT cells grown in 12-well plates were infected with 5 × 10^6 tachyzoites of the RH Δhxgprt strain. After the invasion process, cells were washed with PBS and incubated with 3 (7.5 μM), CPT (10 μM), 3 (7.5 μM) plus CPT (10 μM), or the vehicle (DMSO), diluted in supplemented DMEM for 2 days. Then, infected cells were harvested by trypsinization, centrifuged, resuspended in PBS, and lysed by freeze–thaw cycling. Samples were resolved by SDS-PAGE (15%), and a western blot assay was conducted. Membranes were incubated (1 h, RT) with rabbit anti-T. gondii γH2A.X (1:500) ([Contreras et al., 2021]) and murine anti-SAG1 (Novus Biologicals, 1:500). Finally, they were washed several times with PBS-T and incubated with alkaline phosphatase-conjugated anti-rabbit or anti-mouse secondary antibodies, diluted to 1:4,000 (Santa Cruz Biotechnology). Immunoreactive protein bands were visualized by the NBT-BCIP (Promega) method. Densitometric analysis of scanned images was performed using the Image-Pro Plus software.

[4] = test system: T. gondii RH Δhxgprt tachyzoites; test: Invasion assay, pretreated extracellular tachyzoites; type: cell-based, Toxoplasma gondii; settings: extracellular tachyzoites preincubated 1 h, 0 up to ∼50 μM, Vero cells
Experimental: Extracellular tachyzoites of RH Δhxgprt strain (2 × 10^6) were preincubated for 1 h (at 37°C and 5% CO2) with different doses of the assayed compounds (up to 40–50 μM) or the vehicle (DMSO) diluted in supplemented DMEM. Parasites were, then, centrifuged, resuspended in supplemented DMEM, and were allowed to invade Vero cell monolayers grown on coverslips in 24-well plates by incubation for 10 min on ice followed by 1 h at 37°C. Invasion assay was performed as described elsewhere ([Yañuk et al., 2017]). To facilitate counting, cells were analyzed by indirect immunofluorescence assay (IFA). Immunostaining was performed using anti-SAG1 mouse monoclonal (Novus Biologicals, 1:50)/goat anti-mouse Alexa Fluor 488 (Invitrogen, 1:4,000) antibodies. Fifty random fields per sample, with a similar number of host cells, were analyzed under microscope (Zeiss Axio Observer Colibri 7, magnification × 63). The number of parasitophorous vacuoles per field (PV/field) was counted. Data are presented as means of PV/field ± SEM. Two independent experiments were performed in duplicates.

[5] = test system: T. gondii RH Δhxgprt tachyzoites; test: Replication assay (tachyzoites per PV); type: cell-based, Toxoplasma gondii; settings: for % PV (1P): intracellular tachyzoites in Vero cells, 7.5 μM, 2 days of incubation
Experimental: The effect of βCs on the replication process was evaluated on both extracellular and intracellular treated tachyzoites of the strain RH Δhxgprt. In the first case, the procedure followed was described above (see invasion assay), but after allowing the invasion, samples were washed with PBS and incubated for 1 day with supplemented DMEM (without drugs), before fixing and staining. To investigate βCs’ action on intracellular parasites, confluent Vero cells grown in 24-well plates were infected with 2 × 10^6 tachyzoites per well and treated for 2 days with different concentrations of the investigated drugs or the vehicle (DMSO) as negative control. Finally, they were fixed and immunolabeled as detailed previously. The number of tachyzoites per PV was analyzed under a microscope with × 63 magnification. At least 100 PVs selected at random were scored in triplicates, per compound dose, in two independent sets of experiments. Results are depicted as the mean percentage of PVs (% PV) that contained a geometric progression 2^n (with “n” being a natural number ≥ 0) of tachyzoites per PV ± SEM.

[6] = test system: T. gondii RH Δhxgprt tachyzoites; test: Tachyzoite cell cycle analysis by flow cytometry; type: cell-based, Toxoplasma gondii; settings: infected hTERT fibroblasts, 2 days; 1–3 at 7.5 μM, SDZ at 500 μM
Experimental: Tachyzoites of the RH Δhxgprt strain (3 × 10^6) were added to hTERT cell monolayers grown into six-well plates. After invasion was allowed, the medium was changed, and infected cells were incubated for 2 days with 1, 2, and 3 (7.5 μM); SDZ (500 μM, positive control); or the vehicle (negative control), diluted in supplemented DMEM. Then, cells were detached using trypsin/EDTA solution and gently ruptured by successive passages through 27- and 30-gauge needles in order to obtain free parasites. Samples were centrifuged (2,000 rpm, 10 min), washed with PBS, fixed with 70% ethanol, and stored for 1 day at −20°C. Afterward, samples were processed and stained as described previously ([Munera Lopez et al., 2019]). At least 10,000 tachyzoites per sample were analyzed by flow cytometry measurements, carried out in a BD FACSCalibur equipment. Results were analyzed using FlowJo software 7.6. All assays were performed in duplicates, in two independent experiments.

[7] = test system: T. gondii RH RFP tachyzoites; test: Lytic cycle growth assay (RFP fluorescence); type: cell-based, Toxoplasma gondii; settings: for effect on tachyzoite growth: up to 10 μM, 3 d.p.i.; for IC50: Toxoplasma gondii, Fibroblast
[8] = test system: ctDNA; settings: pH 7.4, cited from earlier work
[9] = in vitro; settings: African green monkey (Cercopithecus aethiops)
[10] = MTT cytotoxicity on Vero host cells, 2 days; settings: African green monkey (Cercopithecus aethiops), CC50, Vero cells, 2 days of treatment (Table 1 footnote a)
[11] = MTT cytotoxicity on hTERT fibroblasts, 4 days; type: cell-based, human; settings: human, MTT, 4 days of incubation (Table 1 footnote b)
Experimental: The same assay was performed for hTERT fibroblasts, incubated for 4 days with different concentrations of 3. Absorbance was read at 540 nm (reference wavelength: 700 nm) in a plate reader (Synergy H1 Hybrid Reader, BioTek). Average absorbance from background wells (without cells, treated as the samples) was subtracted out, to obtain corrected values (A540 corr). The percentage of cell viability was calculated as follows:
Cellviability(%)=A540corrtreatedcells/A540corruntreatedcells×100
CC50 values were obtained by nonlinear regression analysis of cell viability (%) vs. log[compound] with a variable Hill’s slope, using the GraphPad Prism 5.03 software. Each concentration was assayed in triplicates, in three independent sets of experiments. To avoid effects of evaporation, outer wells were not used.

[12] = test system: T. gondii RH Δhxgprt tachyzoites; design: method as in Alomar et al. (2013); settings: extracellular tachyzoites preincubated 1 h, 0 up to ∼50 μM, Vero cells; ref Alomar et al. (2013); cited from earlier work
[13] = test system: T. gondii RH Δhxgprt tachyzoites; design: method as in Alomar et al. (2013); settings: 1-h-pretreated extracellular tachyzoites, 25–40 μM, 1 day of incubation; ref Alomar et al. (2013); cited from earlier work
[14] = test system: human topoisomerase II; design: method as in Cao et al., 2005; settings: 600 μM; ref Cao et al., 2005; cited from earlier work
[15] = test system: topoisomerase I; design: method as in Cao et al., 2005; settings: cell-free system, ref Cao et al., 2005, cited from earlier work
[16] = test system: Vero cells; test: MTT cytotoxicity on Vero host cells, 2 days; settings: Vero cells, 2 days of treatment (Table 1 footnote a)
[17] = 72 h, RH RFP strain in hTERT fibroblasts, 3 d.p.i. (Table 1 footnote d), read-out: IC50 (converted)

CCc1nc(N)nc(N)c1-c1ccc(Cl)cc1 [Pyrimethamine, pyrimethamine]
CC50 [1]: > 40.2 µM
IC50 ([2]; Table 1 footnote g): 0.8 µM
IC50 ([2]; reported on RH strain, Table 1 footnote c): 3.4 µM

CC[C@@]1(O)C(=O)OCc2c1cc1n(c2=O)Cc2cc3ccccc3nc2-1 [CPT, camptothecin, reference compound]
γH2A.X levels [3]: notable increase

COc1ccc2c(c1)[nH]c1c(C)[n+](C)ccc12 [Compound 2, 2-methyl-harminium]
effect on invasion process (PV/field) [4]: negligible or rather low effect
increase of % PV with one parasite (% PV (1P)) vs control ([5]; 1-h-pretreated extracellular tachyzoites, 5–50 μM, 1 day of incubation without drug): around fourfold
% PV (1P) [5]: 68%
effect on tachyzoite cell cycle (DNA content, G1 vs S/M) [6]: arrest in S/M phases; also recorded: significant enrichment in tachyzoite DNA content compatible with S/M phases
effect on tachyzoite growth ([7]; RH RFP in hTERT fibroblasts): no major impact
IC50 [7, 17]: > 10 µM
overall binding constant to ctDNA ([8]; ref Denofrio et al., 2020): 5.9 ± 0.3 × 10^3 M^–1 in bp
CC50 at 2 days [9]: > 500 µM

Nc1ccc(S(=O)(=O)Nc2ncccn2)cc1 [SDZ, sulfadiazine, reference compound]
decrease in RFU values with respect to untreated controls ([7]; SDZ 250 and 500 μM, RH RFP in hTERT fibroblasts): ~50%
IC50 [7, 17]: ~500 µM
IC50 ([2]; Table 1 footnote g): 2400 to 2800 µM
IC50 ([2]; Table 1 footnote h): 308 µM
CC50 at 2 days ([10]; Vero cells (monolayers)): > 500 µM

COc1ccc2c(c1)[nH]c1c(C)nccc12 [Compound 1, harmine]
CC50 at 4 days [11]: 49 µM
% PV (1P) [5]: 65%
effect on tachyzoite cell cycle (DNA content, G1 vs S/M) [6]: negligible or null effect
selectivity index (SI) ([7]; CC50 hTERT 4 days / IC50 at 4 d.p.i.): <5
effect on tachyzoite growth ([7]; RH RFP in hTERT fibroblasts): no major impact
IC50 ([7]; 72 h): > 10 µM
IC50 ([7]; 96 h): > 10 µM
effect on invasion process (PV/field) [12]: inhibited
change in % PV with two parasites (% PV (2P)) vs control [13]: sharp increase
overall binding constant to ctDNA ([8]; ref Yañuk et al., 2018): 7.7 ± 0.2 × 10^3 M^–1 in bp
inhibition of human topoisomerase II [14]: do not inhibit
inhibition of topoisomerase I activity ([15]; 50 μM): strongly decreases
inhibition of topoisomerase I activity ([15]; 150 μM): inhibited
CC50 at 2 days [10]: ~60 µM
CC50 [16]: 57 ± 4 µM
